Values after ≈ are worked out from the molar mass of the structure shown. Active and inactive are the calls of the source. The rule behind the calls is not given here.
Assays:
[1] = tested on: Staphylococcus aureus; assay: Antibacterial activity against exponential growth culture of methicillin-sensitive Staphylococcus aureus ATCC 29213 grown for 2 hrs in MHBc by broth microdilution method; format: functional
[2] = tested on: Staphylococcus aureus; assay: Bactericidal activity against exponential growth culture of methicillin-sensitive Staphylococcus aureus ATCC 29213 grown for 2 hrs in MHBc assessed as logarithmic reduction in CFU at 2 ug/ml within 60 mins by time kill study; format: functional
[3] = tested on: Staphylococcus aureus; assay: Bactericidal activity against high inoculum density stationary phase culture of methicillin-sensitive Staphylococcus aureus ATCC 29213 grown for >17 hrs in MHBc by time kill study; format: functional, organism-based
[4] = tested on: Staphylococcus aureus; assay: Bactericidal activity against stationary phase culture of methicillin-sensitive Staphylococcus aureus ATCC 29213 grown for 17 hrs in MHBc at 32 ug/ml after 24 hrs by time kill study; format: functional, organism-based
[5] = tested on: Staphylococcus aureus; assay: Bactericidal activity against high inoculum density stationary phase culture of methicillin-sensitive Staphylococcus aureus ATCC 29213 grown for >17 hrs in MHBc assessed as log reduction in CFU per millimiter at 100 ug/mL after 8 hrs by time kill study; format: functional
[6] = tested on: Staphylococcus aureus; assay: Bactericidal activity against high inoculum density stationary phase culture of methicillin-sensitive Staphylococcus aureus ATCC 29213 grown for >17 hrs in MHBc at 10 ug/mL after 24 hrs by time kill study; format: functional, organism-based
[7] = tested on: Staphylococcus aureus; assay: Bactericidal activity against high inoculum density exponential growth culture of methicillin-sensitive Staphylococcus aureus ATCC 29213 grown for 2 hrs in MHBc at 10 ug/mL after 24 hrs by time kill study; format: functional, organism-based
[8] = tested on: Staphylococcus aureus; assay: Bactericidal activity against high inoculum density exponential growth culture of methicillin-sensitive Staphylococcus aureus ATCC 29213 grown for 2 hrs in MHBc assessed as log reduction in cell density at 100 ug/mL after 1 hr by time kill study; format: functional, organism-based
[9] = tested on: Staphylococcus aureus; assay: Bactericidal activity against high inoculum density stationary phase culture of methicillin-sensitive Staphylococcus aureus ATCC 29213 grown for >17 hrs in MHBc at 100 ug/mL after prolonged treatment period by time kill study; format: functional, organism-based
[10] = tested on: Staphylococcus aureus; assay: Bactericidal activity against stationary phase culture of methicillin-sensitive Staphylococcus aureus ATCC 29213 grown for >17 hrs in MHBc followed by dilution in nutrient depleted MHBc assessed as logarithmic reduction in CFU per millimiter at 10 ug/mL after 24 hrs by time kill study; format: functional
[11] = tested on: Staphylococcus aureus; assay: Bactericidal activity against CCCP-induced metabolically arrested exponential growth culture of methicillin-sensitive Staphylococcus aureus ATCC 29213 grown for 2 hrs in MHBc at 10 ug/mL after 24 hrs by time kill study; format: functional, organism-based
[12] = tested on: Staphylococcus aureus; assay: Bactericidal activity against erythromycin-induced metabolically arrested exponential growth culture of methicillin-sensitive Staphylococcus aureus ATCC 29213 grown for 2 hrs in MHBc at 10 ug/mL after 24 hrs by time kill study; format: functional, organism-based
[13] = tested on: Staphylococcus aureus; assay: Bactericidal activity against 1 hr cold-arrested exponential growth culture of methicillin-sensitive Staphylococcus aureus ATCC 29213 grown for 2 hrs in MHBc at 2 ug/mL incubated at 0 degC by time kill study; format: functional, organism-based
[14] = tested on: Staphylococcus aureus; assay: Bactericidal activity against 24 hrs cold-arrested exponential growth culture of methicillin-sensitive Staphylococcus aureus ATCC 29213 grown for 2 hrs in MHBc at 2 ug/mL incubated at 37 degC after 2 hrs by time kill study; format: functional, organism-based
[15] = tested on: Staphylococcus aureus; assay: Bactericidal activity against stationary phase culture of methicillin-sensitive Staphylococcus aureus ATCC 29213 grown for >17 hrs in MHBc followed by dilution in nutrient depleted MHBc assessed as logarithmic reduction in CFU per millimiter at 100 ug/mL after 24 hrs by time kill study; format: functional, organism-based
[16] = tested on: Staphylococcus aureus; assay: Bactericidal activity against high inoculum density stationary phase culture of methicillin-sensitive Staphylococcus aureus ATCC 29213 grown for >17 hrs in MHBc at 100 ug/mL after 24 hrs by time kill study; format: functional, organism-based
[17] = tested on: Staphylococcus aureus; assay: Bactericidal activity against high inoculum density stationary phase culture of methicillin-sensitive Staphylococcus aureus ATCC 29213 grown for >17 hrs in MHBc assessed as effect on viability at 100 ug/mL after 4 hrs by time kill study; format: functional, organism-based

Compound	MIC ([1]; ATCC 29213, 2 h)	Activity [7]	Activity [11]	Activity [12]	Activity [13]	Activity [14]	Activity [16]	also measured
CCCCCCCCCC(=O)N[C@@H](Cc1c[nH]c2ccccc12)C(=O)N[C@H](CC(N)=O)C(=O)N[C@@H](CC(=O)O)C(=O)N[C@@H]1C(=O)NCC(=O)N[C@@H](CCCN)C(=O)N[C@@H](CC(=O)O)C(=O)N[C@H](C)C(=O)N[C@@H](CC(=O)O)C(=O)NCC(=O)N[C@H](CO)C(=O)N[C@@H]([C@H](C)CC(=O)O)C(=O)N[C@@H](CC(=O)c2ccccc2N)C(=O)O[C@@H]1C	0.5 µg/mL (≈ 0.309 µM)	Active	Active	Active	Active	Active	–	Activity [2]: 3; Activity [3]: Dose-dependent effect; Activity [4]: Active; Activity [5]: 3; Activity [6]: inactive; Activity [8]: Active; Activity [9]: Active; Activity [10]: >1; Activity [15]: Active
O=C(O)c1cn(C2CC2)c2cc(N3CCNCC3)c(F)cc2c1=O [CIPROFLOXACIN]	0.5 µg/mL (≈ 1.51 µM)	Active	inactive	inactive	inactive	Active	–	–
CN[C@H](CC(C)C)C(=O)N[C@H]1C(=O)N[C@@H](CC(N)=O)C(=O)N[C@H]2C(=O)N[C@H]3C(=O)N[C@H](C(=O)N[C@H](C(=O)O)c4cc(O)cc(O)c4-c4cc3ccc4O)[C@H](O)c3ccc(c(Cl)c3)Oc3cc2cc(c3O[C@@H]2O[C@H](CO)[C@@H](O)[C@H](O)[C@H]2O[C@H]2C[C@](C)(N)[C@H](O)[C@H](C)O2)Oc2ccc(cc2Cl)[C@H]1O	–	–	–	–	–	–	inactive	Activity [17]: inactive
CCOc1ccc2ccccc2c1C(=O)N[C@@H]1C(=O)N2[C@@H]1SC(C)(C)[C@@H]2C(=O)O [NAFCILLIN]	0.125 µg/mL (≈ 0.302 µM)	–	–	–	inactive	Active	–	–
GENTAMICIN	–	–	–	–	–	–	Active	MIC [1]: 0.25 µg/mL

From ChEMBL document CHEMBL1151439, “Bactericidal action of daptomycin against stationary-phase and nondividing Staphylococcus aureus cells” (2007)
